Assay results: the SangsterLogP compilation

Row | logP | Compound
1 | 3.26 | Nc1ccc(Br)c2ccccc12
2 | 2.95 | Cc1ccc(C(=O)O)cc1C
3 | 0.77 | CCc1ncc[nH]1
4 | 1.84 | Cc1nc2ccccc2[nH]1
5 | 3.65 | Cc1cccc(C)c1C(=O)c1ccccc1
6 | 3.87 | Cc1ccccc1C(=O)c1ccccc1C
7 | 5.2 | Clc1ccc2cc3ccccc3cc2c1
8 | 6.54 | CCc1cccc(CC)c1C(=O)c1c(CC)cccc1CC
9 | 1.3 | CCCc1ncc[nH]1
10 | 4.5 | CCCCCc1ccc(C(=O)O)cc1
11 | 4.69 | Cc1cccc(C)c1C(=O)c1c(C)cccc1C
12 | 5.56 | CCCCCCCc1ccc(C(=O)O)cc1
13 | 4.01 | Nc1ccc2ccc3cccc4ccc1c2c34

Row | Compound | logP
14 | O=[N+]([O-])c1cccc2ccccc12 | 3.06
15 | CCc1c2ccccc2cc2ccccc12 | 5.52
